Measurements: paper PMC12795810 (Nature Communications, 2025)

Columns and labels:
[1] = when combined with letrozole/abemaciclib
[2] = cited from earlier work

## CN(C)C(=N)N=C(N)N [metformin]
[1]
  increase in metformin exposure: more than 3 fold
[2]
  recommended maximum concentration for safe clinical use: 2500 µg/L
